One data set deals with NCI-H146. The experiment in a line: Antiproliferative activity against human NCI-H146 cells incubated for 72 hrs. The format is functional, cell-based. The conditions noted are these: NCI-H146, 72 h.
Another data set concerns NCI-H446. Description: Antiproliferative activity against human NCI-H446 cells incubated for 72 hrs. The format is functional, cell-based. Particulars: NCI-H446, 72 h.
For a further data set, the system named is SHP77. The experiment in a line: Antiproliferative activity against human SHP77 cells incubated for 72 hrs. The format is functional, cell-based. Particulars: SHP77, 72 h.
A short description of data set [1]: Antiproliferative activity against human L02 cells incubated for 72 hrs. The format is toxicity, cell-based.
The next data set has as its system NCI-H1048. The experiment in a line: Antiproliferative activity against human NCI-H1048 cells incubated for 72 hrs. Format: functional, cell-based. Particulars: NCI-H1048, 72 h.
For the next data set, the system named is NCI-H82. Description: Antiproliferative activity against human NCI-H82 cells incubated for 72 hrs. The format is functional, cell-based. The conditions noted are these: NCI-H82, 72 h.
Data set [2] in a line: Antiproliferative activity against human BEAS-2B cells incubated for 72 hrs. The format is toxicity, cell-based.
The subject of a further data set is NCI-H209. Description: Antiproliferative activity against human NCI-H209 cells incubated for 72 hrs. The format is functional, cell-based. Particulars: NCI-H209, 72 h.
The nature of data set [3]: Antiproliferative activity against human NCI-H196 cells incubated for 72 hrs. The format is functional, cell-based. Particulars: NCI-H196, 72 h.

pIC50: −log10 of the molar value.

As to `FC(F)(F)C1CCN(Cc2cc3c(cc2-c2cc4ccc5c(c4cn2)OCO5)OCO3)CC1`, the pIC50 (commonly the IC50 on a negative log10 scale, so that one unit is a factor of ten) with NCI-H146 was 4.40; with NCI-H446 it was 4.81; in the data set with SHP77, 4.60; in the data set on NCI-H1048, below 4.00; with NCI-H82, below 4.00; in the data set on NCI-H209 it was below 4.00. In data set [3], this compound had a pIC50 of 4.46. In addition, the figures for the IC50 at 72 h in data set [1] and in [2] were 56.3 µM and above 100 µM, respectively.
Turning to `CC1CCCN(Cc2cc3c(cc2-c2cc4ccc5c(c4cn2)OCO5)OCO3)C1` (configuration not stated), the pIC50 with NCI-H146 was 4.50; in the data set with NCI-H446, 4.64; in the data set with SHP77, 4.75; in the data set with NCI-H1048, 5.00; in the data set with NCI-H82 it was 4.53; in the data set on NCI-H209, 4.39. Also, the negative logarithm of the IC50 (pIC50) in data set [3] is 4.56. The IC50 (usually the concentration that gives 50% inhibition) at 72 h is 43 µM in data set [1] and 14.3 µM in [2].
Consider `c1c(CN2CCCC2)c(-c2cc3ccc4c(c3cn2)OCO4)cc2c1OCO2`, for which the pIC50 in the data set on NCI-H146 is 4.37; in the data set with NCI-H446, 4.40; in the data set on SHP77, 4.54; with NCI-H1048, 4.60; in the data set with NCI-H82, 4.22; in the data set on NCI-H209, 4.09. This compound also showed a negative-log IC50 (pIC50) in data set [3] of 4.46. Moreover, the IC50 at 72 h came out at 33.6 µM in [1] and 29 µM in [2].
On to `c1c(CN2CC3CC3C2)c(-c2cc3ccc4c(c3cn2)OCO4)cc2c1OCO2` (configuration not stated), for which the pIC50 was below 4.00 with NCI-H146; 4.73 in the data set on NCI-H446; 4.67 with SHP77; 4.78 in the data set with NCI-H1048; 4.54 in the data set with NCI-H82; 4.28 in the data set with NCI-H209. This compound also had a pIC50 in data set [3] of 4.41. For the same compound, the IC50 at 72 h in [1] is 26.8 µM; in data set [2], 23.7 µM.
On to `CCC(=O)C1CCN(Cc2cc3c(cc2-c2cc4ccc5c(c4cn2)OCO5)OCO3)CC1`, for which the pIC50 was 4.37 with NCI-H146; 4.67 with NCI-H446; 4.58 in the data set on SHP77; below 4.00 in the data set with NCI-H1048; 4.31 in the data set with NCI-H82; below 4.00 with NCI-H209. The compound also showed a negative-log IC50 (pIC50) in [3] of 4.46. Besides, the IC50 at 72 h is 41.7 µM in data set [1] and above 100 µM in [2].
In the case of `c1c(CN2CCC(C3CC3)CC2)c(-c2cc3ccc4c(c3cn2)OCO4)cc2c1OCO2`, the pIC50 was 4.42 in the data set with NCI-H146; 4.81 in the data set on NCI-H446; below 4.00 in the data set on SHP77; below 4.00 with NCI-H1048; below 4.00 in the data set with NCI-H82; below 4.00 in the data set with NCI-H209. This compound gave a negative logarithm of the IC50 (pIC50) in data set [3] below 4.00. The IC50 at 72 h was 83.6 µM in data set [1] and above 100 µM in [2].
In the case of `OC1CCCN(Cc2cc3c(cc2-c2cc4ccc5c(c4cn2)OCO5)OCO3)CC1` (configuration not stated), the pIC50 is 4.51 in the data set with NCI-H146; 4.34 with NCI-H446; 4.55 in the data set with SHP77; 4.68 in the data set on NCI-H1048; 4.52 in the data set on NCI-H82; 4.32 in the data set on NCI-H209. This compound also showed a pIC50 in data set [3] of 4.41. Also, the IC50 at 72 h in data set [1] worked out at 37.4 µM; in data set [2], 21.1 µM.
For the compound `ClC1CCN(Cc2cc3c(cc2-c2cc4ccc5c(c4cn2)OCO5)OCO3)CC1`, the pIC50 in the data set on NCI-H146 is below 4.00; in the data set with NCI-H446 it was 4.42; in the data set with SHP77 it was below 4.00; with NCI-H1048 it was below 4.00; with NCI-H82, below 4.00; with NCI-H209, below 4.00. The compound also had a pIC50 in data set [3] of 4.20. Besides, the concentration for half-maximal inhibition (IC50) at 72 h in data set [1] and in data set [2] was above 100 µM in each case.
`CCC1CCCCN1Cc1cc2c(cc1-c1cc3ccc4c(c3cn1)OCO4)OCO2` (configuration not stated): the negative logarithm of the IC50 (pIC50) in the data set on NCI-H146 was 4.48; in the data set on NCI-H446, 4.77; in the data set on SHP77, 4.68; with NCI-H1048, 4.87; in the data set on NCI-H82, 4.80; in the data set with NCI-H209, 4.60. For the same compound, the pIC50 in [3] was 4.77. Also, the figures for the IC50 at 72 h in data set [1] and in [2] were 22.6 µM and 20.7 µM, respectively.
For the compound `FC1CCN(Cc2cc3c(cc2-c2cc4ccc5c(c4cn2)OCO5)OCO3)CC1`, the pIC50 in the data set on NCI-H146 was below 4.00; in the data set on NCI-H446, 4.01; in the data set with SHP77, below 4.00; in the data set with NCI-H1048, below 4.00; with NCI-H82, below 4.00; in the data set with NCI-H209, below 4.00. Further, the pIC50 in [3] is below 4.00. Also, the IC50 at 72 h in [1] and in [2] was above 100 µM throughout.
For the compound `CC1CCCCN1Cc1cc2c(cc1-c1cc3ccc4c(c3cn1)OCO4)OCO2` (configuration not stated), the pIC50 is 4.41 in the data set with NCI-H146; 4.84 in the data set with NCI-H446; 4.39 in the data set with SHP77; 4.78 with NCI-H1048; 4.41 in the data set on NCI-H82; 4.30 in the data set on NCI-H209. Also, the pIC50 in [3] was 4.43. The IC50 at 72 h in data set [1] was found to be 42.4 µM; in data set [2] it was 19.4 µM.
As for `CC1(O)CCN(Cc2cc3c(cc2-c2cc4ccc5c(c4cn2)OCO5)OCO3)C1` (configuration not stated), the pIC50 is 4.70 in the data set on NCI-H146; 4.41 in the data set on NCI-H446; 4.49 in the data set with SHP77; 4.45 with NCI-H1048; below 4.00 with NCI-H82; 4.14 with NCI-H209. This compound gave a pIC50 in [3] of 4.33. The IC50 at 72 h is above 100 µM in data set [1] and 39.7 µM in [2].
For the compound `CC(C)(C)C(=O)C1CCN(Cc2cc3c(cc2-c2cc4ccc5c(c4cn2)OCO5)OCO3)CC1`, the pIC50 in the data set with NCI-H146 was below 4.00; in the data set with NCI-H446, 4.61; with SHP77 it was below 4.00; with NCI-H1048 it was below 4.00; with NCI-H82, below 4.00; with NCI-H209 it was below 4.00. In addition, in [3], the pIC50 was below 4.00. Further, the IC50 at 72 h in [1] and in data set [2] was above 100 µM each time.
As for `COC(=O)C1CCN(Cc2cc3c(cc2-c2cc4ccc5c(c4cn2)OCO5)OCO3)CC1`, the pIC50 is below 4.00 in the data set on NCI-H146; 4.18 in the data set on NCI-H446; below 4.00 in the data set on SHP77; 4.22 with NCI-H1048; below 4.00 in the data set on NCI-H82; below 4.00 in the data set with NCI-H209. Further, in [3], the pIC50 is below 4.00. Moreover, the IC50 at 72 h in [2] turned out to be 77.5 µM.
As to `c1c(CN2CCCCC2)c(-c2cc3ccc4c(c3cn2)OCO4)cc2c1OCO2`, the pIC50 with NCI-H146 is below 4.00; in the data set with NCI-H446 it was 4.70; in the data set on SHP77, 4.52; in the data set with NCI-H1048 it was 4.85; in the data set with NCI-H82, 4.57; in the data set on NCI-H209 it was 4.25. In data set [3], this compound showed a negative logarithm of the IC50 (pIC50) of 4.47. Besides, the IC50 at 72 h in data set [1] amounted to 25.2 µM; in data set [2], 21.2 µM.
With `CC(C)C1CCN(Cc2cc3c(cc2-c2cc4ccc5c(c4cn2)OCO5)OCO3)CC1`, the pIC50 in the data set on NCI-H146 was above 5.20; in the data set on NCI-H446, 5.58; in the data set on SHP77, 5.09; in the data set on NCI-H1048, 5.66; in the data set on NCI-H82, 5.77; in the data set on NCI-H209 it was 5.16. This compound showed a pIC50 in [3] of 4.84. The IC50 at 72 h in [1] was 18.2 µM; in [2] it was above 100 µM.
In the case of `NC(=O)C1CCN(Cc2cc3c(cc2-c2cc4ccc5c(c4cn2)OCO5)OCO3)CC1`, the pIC50 is below 4.00 with NCI-H146; 4.13 in the data set with NCI-H446; 4.38 in the data set on SHP77; 4.41 with NCI-H1048; 4.20 in the data set on NCI-H82; 4.11 in the data set on NCI-H209. In data set [3], this compound showed a pIC50 of 4.24. For the same compound, the results for the IC50 at 72 h in [1] and in [2] were 25.1 µM and 28.8 µM, respectively.

The record behind these values is ChEMBL document CHEMBL6153083, “Synthesis, Structural Modification, and Antismall Cell Lung Cancer Activity of 3-Arylisoquinolines with Dual Inhibitory Activity on Topoisomerase I and II” (J Med Chem, 2025).
